Measured values taken from the NIST ThermoML archive (doi:10.1021/je200434a).
± gives the expanded uncertainty stated by the source.

Conditions: 101.33 kPa, Liquid; for viscosity: Concentric cylinders viscometry; for mass density: Vibrating tube method

CCCCOS(=O)(=O)[O-].CC[n+]1ccn(C)c1 [3-ethyl-1-methylimidazolium butyl sulfate]
Conditions	mass density [kg/m3]	viscosity [mPa·s]
283.15 K	–	468.4 ± 23
288.15 K	–	332.5 ± 16
293.15 K	1179.68 ± 1.2	242.3 ± 11
294.15 K	1178.99 ± 1.2	–
295.15 K	1178.3 ± 1.2	–
296.15 K	1177.62 ± 1.2	–
297.15 K	1176.93 ± 1.2	–
298.15 K	1176.24 ± 1.2	180.8 ± 8
299.15 K	1175.55 ± 1.2	–
300.15 K	1174.87 ± 1.2	–
301.15 K	1174.19 ± 1.2	–
302.15 K	1173.5 ± 1.2	–
303.15 K	1172.82 ± 1.2	137.9 ± 6
304.15 K	1172.14 ± 1.2	–
305.15 K	1171.46 ± 1.2	–
306.15 K	1170.78 ± 1.2	–
307.15 K	1170.11 ± 1.2	–
308.15 K	1169.43 ± 1.2	107.2 ± 4.5
309.15 K	1168.75 ± 1.2	–
310.15 K	1168.08 ± 1.2	–
311.15 K	1167.41 ± 1.2	–
312.15 K	1166.73 ± 1.2	–
313.15 K	1166.06 ± 1.2	84.8 ± 3.5
314.15 K	1165.39 ± 1.2	–
315.15 K	1164.73 ± 1.2	–
316.15 K	1164.06 ± 1.2	–
317.15 K	1163.39 ± 1.2	–
318.15 K	1162.73 ± 1.2	68.1 ± 2.8
319.15 K	1162.06 ± 1.2	–
320.15 K	1161.4 ± 1.2	–
321.15 K	1160.74 ± 1.2	–
322.15 K	1160.07 ± 1.2	–
323.15 K	1159.41 ± 1.2	55.6 ± 2.3
324.15 K	1158.76 ± 1.2	–
325.15 K	1158.1 ± 1.2	–
326.15 K	1157.43 ± 1.2	–
327.15 K	1156.78 ± 1.2	–
328.15 K	1156.12 ± 1.2	45.9 ± 1.9
329.15 K	1155.47 ± 1.2	–
330.15 K	1154.81 ± 1.2	–
331.15 K	1154.16 ± 1.2	–
332.15 K	1153.51 ± 1.2	–
333.15 K	1152.85 ± 1.2	38.4 ± 1.6
334.15 K	1152.2 ± 1.2	–
335.15 K	1151.55 ± 1.2	–
336.15 K	1150.9 ± 1.2	–
337.15 K	1150.25 ± 1.2	–
338.15 K	1149.6 ± 1.2	32.4 ± 1.3
339.15 K	1148.95 ± 1.2	–
340.15 K	1148.3 ± 1.1	–
341.15 K	1147.65 ± 1.1	–
342.15 K	1147.01 ± 1.1	–
343.15 K	1146.37 ± 1.1	27.7 ± 1.1
344.15 K	1145.72 ± 1.1	–
345.15 K	1145.07 ± 1.1	–
346.15 K	1144.43 ± 1.1	–
347.15 K	1143.78 ± 1.1	–
348.15 K	1143.14 ± 1.1	23.8 ± 1
349.15 K	1142.5 ± 1.1	–
350.15 K	1141.85 ± 1.1	–
351.15 K	1141.21 ± 1.1	–
352.15 K	1140.57 ± 1.1	–
353.15 K	1139.93 ± 1.1	20.7 ± 0.9
354.15 K	1139.29 ± 1.1	–
355.15 K	1138.65 ± 1.1	–
356.15 K	1138.01 ± 1.1	–
357.15 K	1137.37 ± 1.1	–
358.15 K	1136.73 ± 1.1	18.1 ± 0.8
359.15 K	1136.09 ± 1.1	–
360.15 K	1135.45 ± 1.1	–
361.15 K	1134.82 ± 1.1	–
362.15 K	1134.18 ± 1.1	–
363.15 K	1133.54 ± 1.1	16 ± 0.7
368.15 K	–	14.2 ± 0.6
373.15 K	–	12.6 ± 0.5
